Literature values in US20250302889A1, “Ingestible Nutritive Compositions With Prebiotics, Probiotics, and Postbiotics” (First Day Life, Inc., priority 2024, published 2025).

What was measured:
[1] = 24 hours after injection, vs carrageenan control group
[2] = 24 hours after injection, vs carrageenan control group; remark: listed apart in the source
[3] = 24 hours; probiotics 10^8 CFUs, diclofenac sodium 150 mg/kg, single dose

O=C(O)Cc1ccccc1Nc1c(Cl)cccc1Cl [diclofenac sodium]
stair climbing activity (steps climbed) [1]: climbed significantly more steps | motility test score [2]: scored significantly higher | inhibition of edema [3]: about 34%
